In US5872139A, “Heterocyclymethylamino derivatives of cyclobutene-3,4-diones” (American Home Products Corporation, priority 1997, dated 1999):

System: Isolated Rat Bladder Strips
Assay: Inhibition of contractions in isolated rat bladder strips (KCl-stimulated)
Assay type: cell-based, Sprague-Dawley rats
Conditions: 30 μM, 15 mM KCl, read-out: Percent inhibition (I) at 30 μM
Description: The smooth muscle relaxing activity of the compounds of this invention was established in accordance with standard pharmaceutically accepted test procedures with representative compounds as follows:
Sprague-Dawley rats (150-200 g) are rendered unconscious by CO2 asphyxiation and then euthanized by cervical dislocation. The bladder is removed into warm (37 deg. C.) physiological salt solution (PSS) of the following composition (mM): NaCl, 118.4; KCl, 4.7; CaCl2, 2.5; […]; NaHCO3, 24.9; KH2 PO4, 1.2; glucose, 11.1; EDTA, 0.023; gassed with […]; pH 7.4. The bladder is opened and then cut into strips 1-2 mm in width and 7-10 mm in length. The strips are subsequently suspended in a 10 mL tissue bath under an initial resting tension of 1.5 g. The strips are held in place by two surgical clips one of which is attached to a fixed hook while the other is attached to an isometric force transducer. […] The carbachol is then washed out and the tissue allowed to relax to its resting level of activity. Following a further 30 min period of recovery an additional 15 mM KCl are introduced into the tissue bath. This increase in KCl concentration results in a large increase in the amplitude of spontaneous contractions (and initiation of contractions in previously quiescent strips) superimposed upon a small increase in basal tone. Following stabilization of this enhanced level of contractile activity, incremental increases in the concentration of test compound or vehicle are introduced into the tissue bath. Contractile activity is measured for each compound or vehicle concentration during the last minute of a 30 minute challenge.
The isometric force developed by the bladder strips is measured using a […] to elicit 50% inhibition of pre-drug contractile activity (IC50 concentration) and is calculated from this concentration-response curve.

Q: `CCC(C)(C)Nc1c(NCc2cc3cc([N+](=O)[O-])ccc3o2)c(=O)c1=O` [Example 9, 3-(1,1-Dimethyl-propylamino)-4-[(5-nitro-benzofuran-2-ylmethyl)-amino]-cyclobut-3-ene-1,2-dione] was tested. Which inhibition at 30 µM did it give?
A: 22.2 ± 7.4%

Q: How did the inhibition at 30 µM turn out when `C[C@@H](Nc1c(NCc2cc3cc(C#N)ccc3o2)c(=O)c1=O)C(C)(C)C` [Example 12, 2-{[3,4-Dioxo-2-(1,2,2-trimethyl-propylamino)-cyclobut-1-enylamino]-methyl}-benzofuran-5-carbonitrile] was run?
A: 5.5 ± 4%

Q: With `CC(C)(C)Nc1c(NCc2cc3cc([N+](=O)[O-])ccc3o2)c(=O)c1=O` [Example 10, 3-tert-butylamino-4-[(5-nitro-benzofuran-2-ylmethyl)-amino]-cyclobut-3-ene-1,2-dione] as the compound, how does the inhibition at 30 µM read?
A: 11.5 ± 3.2%

Q: How did the inhibition at 30 µM turn out when `CC(C)(Cc1ccccc1)Nc1c(NCc2cc3cc(C#N)ccc3o2)c(=O)c1=O` [Example 14, 2-{[2-(1,1-Dimethyl-2-phenyl-ethylamino)-3,4-dioxo-cyclobut-1-enylamino]-methyl}-benzofuran-5-carbonitrile] was run?
A: 31.9 ± 6.4%

Q: For `CC(C)N(C)c1c(NCc2ccncc2)c(=O)c1=O` [Example 7, 3-(Isopropyl-methyl-amino)-4-[(pyridin-4-ylmethyl)-amino]-cyclobut-3-ene-1,2-dione], which inhibition at 30 µM is on record?
A: 27.3 ± 7%

Q: Which inhibition at 30 µM does the source give for `CC(C)(C)Nc1c(NCc2cc3cc(C#N)ccc3o2)c(=O)c1=O` [Example 13, 2-[(2-tert-butylamino-3,4-dioxo-cyclobut-1-enylamino)-methyl]-benzofuran-5-carbonitrile] here?
A: 19.9 ± 8.5%

Same assay, conditions: 0.5 h, 30 μM, 15 mM KCl, read-out: Percent contraction (C) at 30 μM

Q: With `C[C@@H](Nc1c(NCc2cc3cc([N+](=O)[O-])ccc3o2)c(=O)c1=O)C(C)(C)C` [Example 8, 3-[(5-nitro-benzofuran-2-ylmethyl)-amino]-4-(1,2,2-trimethylpropylamino)-cyclobut-3-ene-1,2-dione] as the compound, how does the activity at 30 µM read?
A: 8.5 ± 1.4%

Same assay, conditions: 0.5 h, 15 mM KCl, 30 minute challenge

Q: `CCC(C)(C)Nc1c(NCc2ccccn2)c(=O)c1=O` [Example 3, 3-(1,1-Dimethylpropylamino)-4-[(pyridin-2-ylmethyl)amino]-cyclobut-3-ene-1,2-dione] was tested. Which IC50 did it give?
A: 1250 ± 340 nM

Q: With `CCC(C)(C)Nc1c(NCc2ccncc2)c(=O)c1=O` [Example 1, 3-(1,1-Dimethylpropylamino)-4-[(pyridin-4-ylmethyl)-amino]-cyclobut-3-ene-1,2-dione] as the compound, how does the IC50 read?
A: 420 ± 60 nM

Q: How did the IC50 turn out when `CCC(C)(C)Nc1c(NCc2oc3ccc(C#N)cc3c2Cl)c(=O)c1=O` [Example 16, 2-{[2-(1,1-Dimethyl-propylamino)-3,4-dioxo-cyclobut-1-enylamino]-methyl}-3-chloro-benzofuran-5-carbonitrile] was run?
A: 1300 ± 630 nM

Q: Which IC50 does the source give for `CC(C)(C)Nc1c(NCc2cccnc2)c(=O)c1=O` [Example 5, 3-tert-Butylamino-4-[(pyridin-3-ylmethyl)amino]-cyclobut-3-ene-1,2-dione] here?
A: 2630 ± 220 nM

Q: `C[C@@H](Nc1c(NCc2cc3cc(C#N)ccc3o2)c(=O)c1=O)C(C)(C)C` [Example 12, 2-{[3,4-Dioxo-2-(1,2,2-trimethyl-propylamino)-cyclobut-1-enylamino]-methyl}-benzofuran-5-carbonitrile] was tested. Which IC50 did it give?
A: 3750 ± 1440 nM

Q: `CCC(C)(C)Nc1c(NCc2cc3cc(C#N)ccc3o2)c(=O)c1=O` [Example 11, 2-{[2-(1,1-Dimethyl-propylamino)-3,4-dioxo-cyclobut-1-enylamino]-methyl}-benzofuran-5-carbonitrile] was tested. Which IC50 did it give?
A: 1560 ± 160 nM

Q: For `CC(C)(C)Nc1c(NCc2ccncc2)c(=O)c1=O` [Example 4, 3-tert-Butylamino-4-[(pyridin-4-ylmethyl)amino]-cyclobut-3-ene-1,2-dione], which IC50 is on record?
A: 3000 ± 200 nM

Q: With `CCC(C)(C)Nc1c(NCc2cccnc2)c(=O)c1=O` [Example 2] as the compound, how does the IC50 read?
A: 1250 ± 390 nM

Q: For `CC(Nc1c(NCc2ccncc2)c(=O)c1=O)C(C)(C)C` (stereo not drawn) [Example 15, 3-[(Pyridin-4-ylmethyl)-amino]-4-(1,2,2-trimethyl-propylamino)-cyclobut-3-ene-1,2-dione], which IC50 is on record?
A: 2450 ± 990 nM

Q: With `CC(C)(C)Nc1c(NCc2ccccn2)c(=O)c1=O` [Example 6, 3-tert-Butylamino-4-[(pyridin-2-ylmethyl)amino]-cyclobut-3-ene-1,2-dione] as the compound, how does the IC50 read?
A: 11400 ± 4300 nM

System: hypertrophied bladder (detrussor) smooth muscle
Assay: Inhibition of spontaneous contractions in vivo, hypertrophied rat bladder model (conscious rats, cystometry)
Parameters: species or system female Sprague-Dawley rats
Conditions: 10 mg/kg p.o., 3 animals, conscious female rats, second cystometry one hour after dosing
Protocol: In addition, we tested the ability of the compound of Example 1, as representative of the other compounds of this invention, to inhibit the hyperactivity of hypertrophied bladder (detrussor) smooth muscle in conscious female rats with hypertrophied bladders and thereby alleviate urinary incontinence according to the protocol described by Malmgrem et al., J. Urol. 142:1134, 1989.
Female Sprague-Dawley rats, ranging in weight from 190-210 g are used. Up to 25 animals are prepared each time. After development of bladder hypertrophy 4-8 animals are used per test.
Compounds are dissolved in PEG-200 and administered by gastric gavage or intraveneously in a volume of 5 ml/kg. For primary screening all drugs are administered at the arbitrary dose of 10 mg/kg p.o. to groups of 4 rats.
The animals are anesthetized with halothane. […]
The following urodynamic variables are recorded:
The mean value of each variable is calculated before and after compound administration. For each compound the changes in the variables measured are compared to the values obtained before treatment and expressed as percent inhibition. The data are also subjected to 2-way analysis of variance to determine significant (p<0.05) changes in the variable measured.

Q: With `CCC(C)(C)Nc1c(NCc2ccncc2)c(=O)c1=O` [Example 1, 3-(1,1-Dimethylpropylamino)-4-[(pyridin-4-ylmethyl)-amino]-cyclobut-3-ene-1,2-dione] as the compound, how does the “% Red (F): percent reduction in the total number of spontaneous contractions in the hypertrophied rat bladder model” value read?
A: -8 ± 4%
